Source: EP0314302A2, “Herbicidal o-carbomethoxy-sulfonylureas” (E.I. DU PONT DE NEMOURS AND COMPANY, priority 1987, dated 1989)

What was measured:
Large Crabgrass = assay: Test 9 postemergence; type: in vivo, Digitaria sanguinalis; conditions: 16 g/ha, scale 0-100
Experimental: (§1) Plastic windowsill pots containing planting medium were seeded with bahiagrass, bindweed (Convolvulus spp), guinea grass (Panicum maximum), large crabgrass (Digitaria sanguinalis) and pigweed (Amaranthus spp). Individual 15-cm plastic pots contained sandbur (Cenchrus echinatus), Mikania cordata, Boston fern (Nephrolepis exalata), quackgrass (Agropyron repens), elephantgrass (Pennisetum purpureum) and sowthistle (Sonchus spp) plants.
(§2) Plants were treated postemergence with Compound I formulated in a non-phytotoxic solvent. Plants were visually rated 22 days after treatment (DAT). Injury and weed control ratings were based on the scale of 0 to 100 where 0 = no effect, 20 = minimal control and 100 = complete control.

Loblolly pine = assay: Test 13 conifer seedlings, postemergence; type: in vivo; conditions: scale 0-100
From the text: Conifer species (Loblolly pine) seedlings were transplanted into 15-cm plastic pots filled with planting medium. Compound I was applied postemergence to the loblolly pine seedlings. The compound was formulated in a non-phytotoxic spray solvent. Plans were visually rated 240 days after treatment (DAT) and compared with appropriate controls. Injury ratings are based on the scale of 0 to 100, where 0 indicates no effect, 20 indicates minimal injury and 100 indicates complete kill.

Bahia grass = assay: Test 9 postemergence; type: in vivo, bahiagrass; conditions: 16 g/ha, scale 0-100
Experimental: as §1, §2

Crabgrass = assay: Test 3 postemergence weed control; type: in vivo, Digitaria spp; conditions: scale 0-100
Experimental: Seeds of crabgrass (Digitaria spp), guinea grass (Panicum maximum) and narrowleaf panicum (P. maximum) were planted in 15-cm plastic pots. The weeds were treated postemergence with compound I, formulated in a non-phytotoxic solvent, when the plants had 3 or more leaves and had tillered. The degree of weed control was visually rated 17 days after compound application (DAT). Control ratings were based on a scale of 0 to 100 where 0 = no effect, 20 = minimal control and 100 = complete control.

Lentils = assay: Test 7 postemergence; type: in vivo; conditions: scale 0-100
Experimental: (§3) Individual 11.4-cm plastic pots filled with planting medium were seeded with rape, wild radish (Raphanus raphanistruna). tansy mustard (Descurainia pinnata), ball mustard (Neslia paniculata), black mustard (Brassica nigra), yellow mustard, brown mustard, lentils, safflower, flax, sunflower, peanut, vetch, alfalfa, field bean, pea, violet (Viola spp), Kochia (Kochia spp), Russian thistle (Salsola spp), Matricaria spp, groundsel (Senecio spp), shepherdspurse (Capsella bursa-pastoris), nightshade (Solanum spp), sowthistle (Sonchus spp), sugar beet, wheat, "Bonanza" barley and "Morex" barley, Kentucky bluegrass (Poa pratensis), red clover (Trifolium pratense), dandelion (Taraxacum spp) and buckhorn plantain (Plantago lanceolata).
(§4) Plants were treated postemergence with the compound formulated with a non-phytotoxic carrier. Plants were visually rated 18 days after treatment (DAT). Response ratings were based on the scale of 0 to 100 where 0 = no effect, 20 = minimal injury and 100 = complete control.

Onicutal mustard = assay: Test 7 postemergence; type: in vivo; conditions: scale 0-100
Experimental: as §3, §4

Field bean = assay: Test 7 postemergence; type: in vivo; conditions: scale 0-100
Experimental: as §3, §4

Flax = assay: Test 7 postemergence; type: in vivo; conditions: scale 0-100
Experimental: as §3, §4

Brown mustard = assay: Test 7 postemergence; type: in vivo; conditions: scale 0-100
Experimental: as §3, §4

Yellow mustard = assay: Test 7 postemergence; type: in vivo; conditions: scale 0-100
Experimental: as §3, §4

Rape = assay: Test 7 postemergence; type: in vivo; conditions: scale 0-100
Experimental: as §3, §4

Pea = assay: Test 7 postemergence; type: in vivo; conditions: scale 0-100
Experimental: as §3, §4

Peanut = assay: Test 7 postemergence; type: in vivo; conditions: scale 0-100
Experimental: as §3, §4

Vetch = assay: Test 7 postemergence; type: in vivo; conditions: scale 0-100
Experimental: as §3, §4

Bonanza barley = assay: Test 7 postemergence; type: in vivo; conditions: scale 0-100
Experimental: as §3, §4

Alfalfa = assay: Test 7 postemergence; type: in vivo; conditions: scale 0-100
Experimental: as §3, §4

Sugar beet = assay: Test 7 postemergence; type: in vivo; conditions: scale 0-100
Experimental: as §3, §4

Sunflower = assay: Test 7 postemergence; type: in vivo; conditions: scale 0-100
Experimental: as §3, §4

Morex barley = assay: Test 7 postemergence; type: in vivo; conditions: scale 0-100
Experimental: as §3, §4

Wheat = assay: Test 7 postemergence; type: in vivo; conditions: scale 0-100
Experimental: as §3, §4

Safflower = assay: Test 7 postemergence; type: in vivo; conditions: scale 0-100
Experimental: as §3, §4

Purple nutsedge = assay: Test 11 windowsill flats, postemergence; type: in vivo, Cyperus rotundus; conditions: Postemergence 32 g/ha, 0.25% X-77 surfactant, scale 0-100
Experimental: Budded citrus seedlings were planted in 30-liter plastic pots which were also seeded with sandbur, guineagrass, narrowleaf panicum, common ragweed, yellow nutsedge, purple nutsedge and bindweed. Compound I was applied preemergence and postemergence to the weeds. Treatments were sprayed to simulate the trunk-to-trunk herbicide application method used in some citrus groves. The compound was also applied postemergence to weeds grown in windowsill flats. The flats were filled with planting medium and seeded with morningglory (Ipomoea spp.). purple nutsedge (Cyperus rotundus), pigweed (Amaranthus spp.), bindweed (Convolvulus spp.), narrowleaf panicum (Panicum maximum), common ragweed (Ambrosia artemisiifolia), sandbur (Cenchrus echinatus), itchgrass (Rottboellia exaltata), johnsongrass (Sorghum halepense), guineagrass (Panicum maximum), smooth crabgrass (Digitaria ischaemum), broadleaf signalgrass (Brachiaria platyphylla), bermudagrass (Cynodon dactylon), goosegrass (Eleusine indica), large crabgrass (Digitaria sanguinalis) and yellow nutsedge (Cyperus esculentus).
The compound was formulated and sprayed with 0.25% X-77 surfactant in water. Plants were visually rated 21 and 29 days after treatment and compared with appropriate controls. Injury ratings were based on the scale of 0 to 100, where 0 indicates no effect, 20 indicates minimum effect and 100 indicates complete control. […]

`COC(=O)c1cccnc1S(=O)(=O)NC(=O)Nc1nc(OC)cc(OC)n1` [Compound I, 2-[[(4,6-dimethoxypyrimidin-2-yl)aminocarbonyl]aminosulfonyl]-3-pyridinecarboxylic acid, methyl ester] was tested, and the “Plant Injury Rating 22 DAT” value (Large Crabgrass) was 60, the “Plant Injury Rating 240 DAT” value (Loblolly pine; 8 g/ha) was 0 and the “Plant Injury Rating 240 DAT” value (Loblolly pine; 16 g/ha) was 0. For the same compound, the “Plant Injury Rating 240 DAT” value (Loblolly pine; 32 g/ha) was 0, the “Plant Injury Rating 240 DAT” value (Loblolly pine; 64 g/ha) was 0 and the “Plant Injury Rating 240 DAT” value (Loblolly pine; 125 g/ha) was 0. For the same compound, the “Plant Injury Rating 22 DAT” value (Bahia grass) was 40, the “Control Rating 17 DAT” value (Crabgrass; 8 g/ha) was 50 and the “Control Rating 17 DAT” value (Crabgrass; 16 g/ha) was 70. For the same compound, the “Control Rating 17 DAT” value (Crabgrass; 32 g/ha) was 100, the “Plant Injury Rating 18 DAT” value (Lentils; 16 g/ha) was 100 and the “Plant Injury Rating 18 DAT” value (Lentils; 32 g/ha) was 100. For the same compound, the “Plant Injury Rating 18 DAT” value (Onicutal mustard; 16 g/ha) was 100, the “Plant Injury Rating 18 DAT” value (Onicutal mustard; 32 g/ha) was 100 and the “Plant Injury Rating 18 DAT” value (Field bean; 16 g/ha) was 100. For the same compound, the “Plant Injury Rating 18 DAT” value (Field bean; 32 g/ha) was 100, the “Plant Injury Rating 18 DAT” value (Flax; 16 g/ha) was 100 and the “Plant Injury Rating 18 DAT” value (Flax; 32 g/ha) was 100. For the same compound, the “Plant Injury Rating 18 DAT” value (Brown mustard; 16 g/ha) was 100, the “Plant Injury Rating 18 DAT” value (Brown mustard; 32 g/ha) was 100 and the “Plant Injury Rating 18 DAT” value (Yellow mustard; 16 g/ha) was 100. For the same compound, the “Plant Injury Rating 18 DAT” value (Yellow mustard; 32 g/ha) was 100, the “Plant Injury Rating 18 DAT” value (Rape; 16 g/ha) was 80 and the “Plant Injury Rating 18 DAT” value (Rape; 32 g/ha) was 100. For the same compound, the “Plant Injury Rating 18 DAT” value (Pea; 16 g/ha) was 100, the “Plant Injury Rating 18 DAT” value (Pea; 32 g/ha) was 100 and the “Plant Injury Rating 18 DAT” value (Peanut; 16 g/ha) was 100. For the same compound, the “Plant Injury Rating 18 DAT” value (Peanut; 32 g/ha) was 100, the “Plant Injury Rating 18 DAT” value (Vetch; 16 g/ha) was 100 and the “Plant Injury Rating 18 DAT” value (Vetch; 32 g/ha) was 100. For the same compound, the “Plant Injury Rating 18 DAT” value (Bonanza barley; 16 g/ha) was 90, the “Plant Injury Rating 18 DAT” value (Bonanza barley; 32 g/ha) was 100 and the “Plant Injury Rating 18 DAT” value (Alfalfa; 16 g/ha) was 100. The “Plant Injury Rating 18 DAT” value (Alfalfa; 32 g/ha) was 100, the “Plant Injury Rating 18 DAT” value (Sugar beet; 16 g/ha) was 100 and the “Plant Injury Rating 18 DAT” value (Sugar beet; 32 g/ha) was 100. For the same compound, the “Plant Injury Rating 18 DAT” value (Sunflower; 16 g/ha) was 100, the “Plant Injury Rating 18 DAT” value (Sunflower; 32 g/ha) was 100 and the “Plant Injury Rating 18 DAT” value (Morex barley; 16 g/ha) was 90. The “Plant Injury Rating 18 DAT” value (Morex barley; 32 g/ha) was 100, the “Plant Injury Rating 18 DAT” value (Wheat; 16 g/ha) was 100 and the “Plant Injury Rating 18 DAT” value (Wheat; 32 g/ha) was 100. For the same compound, the “Plant Injury Rating 18 DAT” value (Safflower; 16 g/ha) was 100, the “Plant Injury Rating 18 DAT” value (Safflower; 32 g/ha) was 100 and the Injury ratings (Purple nutsedge) was 100.
